Test results from patent publication US9458110B2, “Phenylpyrazole derivatives as potent ROCK1 and ROCK2 inhibitors” (BRISTOL-MYERS SQUIBB COMPANY, priority 2013, dated 2016).

Key:
ROCK2 = ROCK2 (Homo sapiens (Human), UniProt O75116); test: ROCK assay (Caliper LABCHIP peptide phosphorylation), ROCK2; format: biochemical; details: 5 μM ATP, 1.5 μM peptide substrate;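 note: reaction stopped with EDTA, then phosphorylated and unphosphorylated peptide resolved by microfluidic electrophoresis, kinase inhibition computed at each compound concentration in dose-response series, DMSO under 2%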
ROCK1 = ROCK1 (Homo sapiens (Human), UniProt Q13464); test: ROCK assay (Caliper LABCHIP peptide phosphorylation), ROCK1; format: biochemical; details: 5 μM ATP, 1.5 μM peptide substrate;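 note: Read-out is separation of phosphorylated from unphosphorylated peptide, with kinase activity inhibition computed at every concentration of a dose-response series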
ROCK1, sequence (Q13464 whole entry, species assumed): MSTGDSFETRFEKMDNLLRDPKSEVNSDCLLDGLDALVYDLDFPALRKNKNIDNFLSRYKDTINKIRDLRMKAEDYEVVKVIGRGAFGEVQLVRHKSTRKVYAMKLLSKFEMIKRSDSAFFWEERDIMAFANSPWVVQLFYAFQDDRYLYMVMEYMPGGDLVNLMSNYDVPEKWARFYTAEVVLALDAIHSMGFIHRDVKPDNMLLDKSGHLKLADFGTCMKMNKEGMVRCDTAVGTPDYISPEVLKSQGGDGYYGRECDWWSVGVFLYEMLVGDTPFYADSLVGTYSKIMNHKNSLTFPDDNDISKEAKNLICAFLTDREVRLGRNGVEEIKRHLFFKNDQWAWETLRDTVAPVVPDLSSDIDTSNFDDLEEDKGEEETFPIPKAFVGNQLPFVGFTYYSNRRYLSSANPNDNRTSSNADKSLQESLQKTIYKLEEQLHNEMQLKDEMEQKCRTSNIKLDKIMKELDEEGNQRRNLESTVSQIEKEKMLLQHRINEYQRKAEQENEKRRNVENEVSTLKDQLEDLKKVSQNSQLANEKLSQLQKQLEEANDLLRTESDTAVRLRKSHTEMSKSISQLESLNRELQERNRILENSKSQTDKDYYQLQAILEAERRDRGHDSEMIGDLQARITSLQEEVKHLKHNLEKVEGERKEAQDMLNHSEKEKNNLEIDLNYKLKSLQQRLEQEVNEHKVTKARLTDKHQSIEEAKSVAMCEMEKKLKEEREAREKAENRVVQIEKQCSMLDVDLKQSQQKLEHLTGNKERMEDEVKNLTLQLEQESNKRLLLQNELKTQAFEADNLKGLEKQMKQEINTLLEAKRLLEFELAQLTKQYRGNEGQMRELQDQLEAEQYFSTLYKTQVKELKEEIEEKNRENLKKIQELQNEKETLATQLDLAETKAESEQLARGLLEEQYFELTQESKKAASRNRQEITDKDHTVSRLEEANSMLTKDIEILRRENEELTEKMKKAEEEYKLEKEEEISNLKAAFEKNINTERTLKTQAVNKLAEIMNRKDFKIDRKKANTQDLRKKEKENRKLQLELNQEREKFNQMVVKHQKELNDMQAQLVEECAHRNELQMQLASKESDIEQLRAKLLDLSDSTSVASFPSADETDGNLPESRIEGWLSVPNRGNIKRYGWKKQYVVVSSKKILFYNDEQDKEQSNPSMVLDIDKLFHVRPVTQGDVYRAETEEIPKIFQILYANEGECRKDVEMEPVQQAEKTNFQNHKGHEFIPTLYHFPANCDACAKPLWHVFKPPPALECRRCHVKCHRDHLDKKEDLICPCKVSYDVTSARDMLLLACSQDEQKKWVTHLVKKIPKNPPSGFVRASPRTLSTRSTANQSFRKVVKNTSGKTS

ROCK2, sequence (O75116 whole entry, species assumed): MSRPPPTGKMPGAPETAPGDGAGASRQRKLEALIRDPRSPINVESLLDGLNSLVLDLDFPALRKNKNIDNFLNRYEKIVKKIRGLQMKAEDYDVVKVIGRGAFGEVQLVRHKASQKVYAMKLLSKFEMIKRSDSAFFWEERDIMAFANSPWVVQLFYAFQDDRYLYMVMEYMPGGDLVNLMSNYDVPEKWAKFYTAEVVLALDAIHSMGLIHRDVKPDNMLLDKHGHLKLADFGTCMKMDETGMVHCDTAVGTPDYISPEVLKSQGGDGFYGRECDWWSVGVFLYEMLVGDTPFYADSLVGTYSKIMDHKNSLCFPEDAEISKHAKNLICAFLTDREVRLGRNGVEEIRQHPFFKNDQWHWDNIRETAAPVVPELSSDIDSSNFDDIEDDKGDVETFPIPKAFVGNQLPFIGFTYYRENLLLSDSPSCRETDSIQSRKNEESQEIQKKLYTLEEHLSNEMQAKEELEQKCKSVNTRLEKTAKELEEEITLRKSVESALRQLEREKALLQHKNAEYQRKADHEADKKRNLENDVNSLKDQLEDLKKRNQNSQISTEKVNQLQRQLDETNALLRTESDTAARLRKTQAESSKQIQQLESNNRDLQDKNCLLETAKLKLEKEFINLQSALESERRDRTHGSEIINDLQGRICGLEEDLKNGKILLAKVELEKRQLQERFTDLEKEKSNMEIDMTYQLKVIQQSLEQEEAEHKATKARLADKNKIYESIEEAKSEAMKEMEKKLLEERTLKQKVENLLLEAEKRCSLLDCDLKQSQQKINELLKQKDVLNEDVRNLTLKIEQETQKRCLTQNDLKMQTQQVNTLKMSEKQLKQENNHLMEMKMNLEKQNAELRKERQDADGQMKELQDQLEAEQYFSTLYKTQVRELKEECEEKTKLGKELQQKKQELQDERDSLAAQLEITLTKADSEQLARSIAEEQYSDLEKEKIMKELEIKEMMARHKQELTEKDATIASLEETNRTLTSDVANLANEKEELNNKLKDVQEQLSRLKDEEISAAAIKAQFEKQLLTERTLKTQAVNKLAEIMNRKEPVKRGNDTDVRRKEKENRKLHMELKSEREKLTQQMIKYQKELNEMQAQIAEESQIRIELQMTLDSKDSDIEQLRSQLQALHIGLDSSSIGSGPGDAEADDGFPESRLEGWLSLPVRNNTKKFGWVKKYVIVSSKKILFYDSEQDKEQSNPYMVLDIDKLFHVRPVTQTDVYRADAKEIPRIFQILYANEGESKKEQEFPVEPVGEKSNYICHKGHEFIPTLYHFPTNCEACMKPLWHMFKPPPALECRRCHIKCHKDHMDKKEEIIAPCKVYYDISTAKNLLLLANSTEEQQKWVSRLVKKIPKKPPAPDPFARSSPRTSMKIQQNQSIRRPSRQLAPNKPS

Row | SMILES | IC50 (ROCK2) [nM] | IC50 (ROCK1) [nM]
1 | COc1cc(C(=O)NCc2ccc(Oc3ccccc3)cc2Cl)ccc1-c1cn[nH]c1 [Example 48, N-(2-chloro-4-phenoxybenzyl)-3-methoxy-4-(1H-pyrazol-4-yl)benzamide] | 1320 | 663
2 | COc1cc(C(=O)NCc2ccc(Cl)c(C(F)(F)F)c2)ccc1-c1cn[nH]c1 [Example 39, N-(4-chloro-3-(trifluoromethyl)benzyl)-3-methoxy-4-(1H-pyrazol-4-yl)benzamide] | 33.3 | 107
3 | COc1cccc([C@@H](C)NC(=O)c2ccc(-c3c(C)n[nH]c3C)c(C)c2)c1 [Example 153, 4-(3,5-dimethyl-1H-pyrazol-4-yl)-N-[(1R)-1-(3-methoxyphenyl)ethyl]-3-methylbenzamide] | 415 | > 2000
4 | COc1cc(C(=O)NCc2c(F)ccc(F)c2Cl)ccc1-c1cn[nH]c1 [Example 88, N-[(2-chloro-3,6-difluorophenyl)methyl]-3-methoxy-4-(1H-pyrazol-4-yl)benzamide] | 3.99 | 8.46
5 | COc1cc(C(=O)NCCc2ccccc2)ccc1-c1cn[nH]c1 [Example 36, 3-methoxy-N-phenethyl-4-(1H-pyrazol-4-yl)benzamide] | 10.5 | 28.1
6 | Cc1cc(C(=O)N[C@H](CO)c2c(F)cccc2F)ccc1-c1cn[nH]c1 [Example 197, N-[(1S)-1-(2,6-difluorophenyl)-2-hydroxyethyl]-3-methyl-4-(1H-pyrazol-4-yl)benzamide] | 17.6 | 52.6
7 | CC(=O)c1cc(C(=O)N[C@H](C)c2ccccc2)ccc1-c1cn[nH]c1 [Example 294, (R)-3-Acetyl-N-(1-phenylethyl)-4-(1H-pyrazol-4-yl)benzamide] | 613 | > 2000
8 | COc1cc(C(=O)N[C@@H](c2ccccc2)[C@H](O)CO)ccc1-c1cn[nH]c1 [Example 224, N-[(1S,2S)-2,3-dihydroxy-1-phenylpropyl]-3-methoxy-4-(1H-pyrazol-4-yl)benzamide] | 1.98 | 8.55
9 | COc1cc(C(=O)NCc2cc(F)ccc2F)ccc1-c1cn[nH]c1 [Example 69, N-(2,5-difluorobenzyl)-3-methoxy-4-(1H-pyrazol-4-yl)benzamide] | 5.2 | 18.6
10 | COc1cc(C(=O)N[C@H](C)c2ccccc2Cl)ccc1-c1cn[nH]c1 [Example 43, (R)-N-(1-(2-chlorophenyl)ethyl)-3-methoxy-4-(1H-pyrazol-4-yl) benzamide] | 1.31 | 40.8
11 | COc1cccc([C@@H](C)NC(=O)c2ccc(-c3c[nH]nc3C(C)O)cc2OC)c1 (stereo partly drawn) [Example 307, 4-(3-(1-Hydroxyethyl)-1H-pyrazol-4-yl)-2-methoxy-N-((R)-1-(3-methoxyphenyl)ethyl)benzamide] | 205 | 544
12 | C[C@@H](NC(=O)c1ccc(-c2cn[nH]c2)c(Cn2ccnn2)c1)c1ccccc1 [Example 137, N-[(1R)-1-phenylethyl]-4-(1H-pyrazol-4-yl)-3-(1H-1,2,3-triazol-1-ylmethyl) benzamide] | 1900 | > 2000
13 | COc1cc(C(=O)NC(CO)c2ccccc2F)ccc1-c1cn[nH]c1 (stereo not shown) [Example 167, N-[1-(2-fluorophenyl)-2-hydroxyethyl]-3-methoxy-4-(1H-pyrazol-4-yl)benzamide] | 16.7 | 56.5
14 | CCC(O)c1cc(C(=O)N[C@H](C)c2ccccc2)ccc1-c1cn[nH]c1 (stereo partly drawn) [Example 285, 3-(1-hydroxypropyl)-N-[(1R)-1-phenylethyl]-4-(1H-pyrazol-4-yl)benzamide] | 1480 | > 2000
15 | COC(=O)c1n[nH]cc1-c1ccc(C(=O)N[C@H](C)c2cccc(OC)c2)c(OC)c1 [Example 302, (R)-Methyl 4-(3-methoxy-4-((1-(3-methoxyphenyl)ethyl)carbamoyl)phenyl)-1H-pyrazole-3-carboxylate] | 69.6 | 70.9
16 | COc1cc(C(=O)NC(CNC(=O)OC(C)(C)C)c2ccccc2)ccc1-c1cn[nH]c1 (stereo not shown) [Example 11, tert-butyl (2-(3-methoxy-4-(1H-pyrazol-4-yl)benzamido)-2-phenylethyl) carbamate] |  | 108
17 | CNC(=O)c1cccc(CNC(=O)c2ccc(-c3cn[nH]c3)c(OC)c2)c1 [Example 65, 3-Methoxy-N-(3-(methylcarbamoyl)benzyl)-4-(1H-pyrazol-4-yl)benzamide] | 0.85 | 
18 | COc1cc(C(=O)NCc2cccc(O)c2)ccc1-c1cn[nH]c1 [Example 6, N-(3-hydroxybenzyl)-3-methoxy-4-(1H-pyrazol-4-yl)benzamide] | 0.85 | 
19 | COc1cc(C(=O)NC(C)Cc2ccc(F)cc2)ccc1-c1cn[nH]c1 (stereo not shown) [Example 111, N-[1-(4-fluorophenyl)propan-2-yl]-3-methoxy-4-(1H-pyrazol-4-yl)benzamide] |  | 35.8

Continued by falling IC50 (ROCK2), values first:

Row | IC50 (ROCK2) [nM] | IC50 (ROCK1) [nM] | SMILES
20 | 675 |  | C[C@@H](NC(=O)c1cc(F)c(-c2cn[nH]c2)cc1OCCN(C)C)c1ccccc1 [Example 310, 2-[2-(dimethylamino)ethoxy]-5-fluoro-N-[(1R)-1-phenylethyl]-4-(1H-pyrazol-4-yl)benzamide]
21 | 255 | 99 | Cc1cc(C(=O)N[C@H](CC(=O)NCC(C)(C)O)c2ccccc2)ccc1-c1cn[nH]c1 [Example 253, (3R)-N-(2-Hydroxy-2-methylpropyl)-3-{[3-methyl-4-(1H-pyrazol-4-yl)phenyl]formamido}-3-phenylpropanamide]
22 | 59.6 | 92.9 | COc1cccc(CCNC(=O)c2ccc(-c3cn[nH]c3)c(OC)c2)c1 [Example 114, 3-methoxy-N-[2-(3-methoxyphenyl)ethyl]-4-(1H-pyrazol-4-yl)benzamide]
23 | 27.8 | 111 | CC(O)c1cc(C(=O)NC(C)c2c(F)cccc2F)ccc1-c1cn[nH]c1 (stereo not shown) [Example 287, N-[1-(2,6-difluorophenyl)ethyl]-3-(1-hydroxyethyl)-4-(1H-pyrazol-4-yl)benzamide]
24 | 7.68 | 2.22 | C[C@@H](NC(=O)c1ccc(-c2cn[nH]c2)c(O)c1)c1ccc(F)cc1 [Example 183, N-[(1R)-1-(4-fluorophenyl)ethyl]-3-hydroxy-4-(1H-pyrazol-4-yl)benzamide]
25 | 4.81 | 21.3 | COc1cccc(CNC(=O)c2ccc(-c3cn[nH]c3)cc2OC)c1 [Example 54, 2-methoxy-N-(3-methoxybenzyl)-4-(1H-pyrazol-4-yl)benzamide]
26 | 3.51 | 11 | Cc1cc(C(=O)N[C@H](C)c2ccccc2)ccc1-c1cn[nH]c1 [Example 84, 3-Methyl-N-[(1R)-1-phenylethyl]-4-(1H-pyrazol-4-yl)benzamide]
27 | 2.65 | 7.9 | COc1cc(C(=O)NCc2ccccc2F)ccc1-c1cn[nH]c1 [Example 25, N-(2-fluorobenzyl)-3-methoxy-4-(1H-pyrazol-4-yl)benzamide]
28 | 0.86 | 4.22 | Cc1cc(C(=O)NCc2cccc(C(=O)NC3CC3)c2)ccc1-c1cn[nH]c1 [Example 244, N-{[3-(cyclopropyl-carbamoyl)phenyl]methyl}-3-methyl-4-(1H-pyrazol-4-yl)benzamide]
29 | 0.85 |  | COC(=O)c1cccc(CNC(=O)c2ccc(-c3cn[nH]c3)c(OC)c2)c1 [Example 8, methyl 3-((3-methoxy-4-(1H-pyrazol-4-yl)benzamido)methyl)benzoate]
